Experimental data as given in patent publication US12370192B2, “Azole-fused pyridazin-3(2H)-one derivatives” (TAKEDA PHARMACEUTICAL COMPANY LIMITED, priority 2019, dated 2025).

Legend:
human GPR139 receptor [1] = target: T1, human GPR139 receptor (Homo sapiens, UniProt Q6DWJ6); assay: Measurement of GPR139 Activation Via Calcium Signaling (FLIPR, T-REx-CHO cells); type: cell-based; details: T-REx-CHO cells stably expressing human GPR139, 11-point dose response, 10 μM maximum concentration, read-out: GPR139 Potency (pEC50) (converted)
T1 construct: expressed in transfected cells; host or cells: T-REx-CHO (Thermo Fisher Scientific), doxycycline-induced
T1 sequence (Q6DWJ6 1-353): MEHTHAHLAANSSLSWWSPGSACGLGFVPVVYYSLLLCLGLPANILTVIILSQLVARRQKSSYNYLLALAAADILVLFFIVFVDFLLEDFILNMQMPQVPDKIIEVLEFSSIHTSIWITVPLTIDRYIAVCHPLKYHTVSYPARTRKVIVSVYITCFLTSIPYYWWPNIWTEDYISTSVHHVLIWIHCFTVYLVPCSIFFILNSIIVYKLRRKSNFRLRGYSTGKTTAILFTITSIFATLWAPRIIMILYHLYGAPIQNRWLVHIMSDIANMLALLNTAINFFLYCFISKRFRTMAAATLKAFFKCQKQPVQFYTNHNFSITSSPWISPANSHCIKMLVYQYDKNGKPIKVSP
Outline: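 T-REx-CHO cells stably carrying human GPR139 under tetracycline control, induced with 2 μg/mL doxycycline for 17 h at 37 °C, loaded 40 min with Calcium 5 dye plus probenecid in HBSS/HEPES pH 7.4. Agonist added as 11-point series (10 μM top); fluorescence read 1 min; pEC50 from four-parameter fit.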

human GPR139 receptor [2] = target: T1, human GPR139 receptor; assay: GPR139 Competition Binding (membrane-based, tritium-labeled ligand); details: T-REx-CHO membranes with human GPR139; 6.5 nM tritium-labeled ligand; 11-point curve, 30 μM maximum concentration; read-out: GPR139 Binding Affinity (pKi) (converted)
Outline: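 Membranes came from doxycycline-induced T-REx-CHO cells expressing human GPR139. They were incubated 20 min at room temperature with 6.5 nM tritiated ligand and compound (11 points, top 30 μM) in HEPES pH 7.3 buffer with MgCl2/CaCl2. Filter-bound counts gave Ki by four-parameter fit, reported as pKi.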

Row | Compound | EC50 (human GPR139 receptor [1]) [µM] | Ki (human GPR139 receptor [2]) [µM]
1 | Cc1nn(C(C)C)c2c(C)nn(CC(=O)N[C@@H](C)c3ccc(C(F)(F)F)cc3)c(=O)c12 [Example 56, (S)-2-(1-isopropyl-3,7-dimethyl-4-oxo-1,4-dihydro-5H-pyrazolo[3,4-d]pyridazin-5-yl)-N-(1-(4-(trifluoromethyl)phenyl)ethyl)acetamide] | 0.214 | 0.479
2 | COc1ccc([C@H](C)NC(=O)Cn2nc(C)c3c(c(C)nn3C(C)C)c2=O)cc1 [Example 57, (S)-2-(1-isopropyl-3,7-dimethyl-4-oxo-1,4-dihydro-5H-pyrazolo[3,4-d]pyridazin-5-yl)-N-(1-(4-methoxyphenyl)ethyl)acetamide] | 0.132 | 3.09
3 | Cc1nn(C2CC2)c2c(=O)n(CC(=O)N[C@@H](C)c3ccc(C(F)(F)F)cn3)ncc12 [Example 58, (S)-2-(1-cyclopropyl-3-methyl-7-oxo-1,7-dihydro-6H-pyrazolo[3,4-d]pyridazin-6-yl)-N-(1-(5-(trifluoromethyl)pyridin-2-yl)ethyl)acetamide] | 0.0741 | 1.35
4 | Cc1nn(CC(=O)N[C@@H](C)c2ccc(C(F)(F)F)cn2)c(=O)c2c1c(C)nn2C(C)C [Example 59, (S)-2-(1-isopropyl-3,4-dimethyl-7-oxo-1,7-dihydro-6H-pyrazolo[3,4-d]pyridazin-6-yl)-N-(1-(5-(trifluoromethyl)pyridin-2-yl)ethyl)acetamide] | 0.347 | 0.741
5 | Cc1nn(CC(=O)NC(C)c2ccc3c(c2)CCCO3)c(=O)c2c1c(C)nn2C1CC1 (stereo not drawn) [Example 61, N-(1-(chroman-6-yl)ethyl)-2-(1-cyclopropyl-3,4-dimethyl-7-oxo-1,7-dihydro-6H-pyrazolo[3,4-d]pyridazin-6-yl)acetamide] | 0.141 | 0.0417
6 | Cc1ccc([C@H](C)NC(=O)Cn2ncc3c(c(C)cn3C3CC3)c2=O)c(C)c1 [Example 65, (S)-2-(1-cyclopropyl-3-methyl-4-oxo-1,4-dihydro-5H-pyrrolo[2,3-d]pyridazin-5-yl)-N-(1-(2,4-dimethylphenyl)ethyl)acetamide] | 0.0676 | 0.00372
7 | Cc1cn(C2CC2)c2cnn(CC(=O)N[C@@H](C)c3ccc(F)cc3Cl)c(=O)c12 [Example 66, (S)—N-(1-(2-chloro-4-fluorophenyl)ethyl)-2-(1-cyclopropyl-3-methyl-4-oxo-1,4-dihydro-5H-pyrrolo[2,3-d]pyridazin-5-yl)acetamide] | 0.0794 | 0.000794
8 | Cc1ccc([C@H](C)NC(=O)Cn2nc(C)c3c(C)nn(C4CC4)c3c2=O)cc1F [Example 68, (S)-2-(1-cyclopropyl-3,4-dimethyl-7-oxo-1,7-dihydro-6H-pyrazolo[3,4-d]pyridazin-6-yl)-N-(1-(3-fluoro-4-methylphenyl)ethyl)acetamide] | 0.0692 | 0.000347
9 | Cc1nn(CC(=O)N[C@@H](C)c2ccc(OC(F)(F)F)cc2)c(=O)c2cnn(C)c12 [Example 73, (S)-2-(1,7-dimethyl-4-oxo-1,4-dihydro-5H-pyrazolo[3,4-d]pyridazin-5-yl)-N-(1-(4-(trifluoromethoxy)phenyl)ethyl)acetamide] | 0.0631 | 3.47
10 | Cc1ccc([C@H](C)NC(=O)Cn2nc(C)c3c(cnn3C)c2=O)cc1 [Example 74, (S)-2-(1,7-dimethyl-4-oxo-1,4-dihydro-5H-pyrazolo[3,4-d]pyridazin-5-yl)-N-(1-(p-tolyl)ethyl)acetamide] | 0.0933 | 2.45

The remaining lines, values ahead:

Row | EC50 (human GPR139 receptor [1]) [µM] | Ki (human GPR139 receptor [2]) [µM] | Compound
11 | 0.107 | 0.0871 | Cc1ccc([C@H](C)NC(=O)Cn2nc(C)c3c(c(C)nn3C(C)C)c2=O)c(F)c1 [Example 54, (S)—N-(1-(2-fluoro-4-methylphenyl)ethyl)-2-(1-isopropyl-3,7-dimethyl-4-oxo-1,4-dihydro-5H-pyrazolo[3,4-d]pyridazin-5-yl)acetamide]
12 | 0.0832 | 0.38 | Cc1ccc([C@H](C)NC(=O)Cn2nc(C)c3c(c(C)nn3C(C)C)c2=O)cc1 [Example 55, (S)-2-(1-isopropyl-3,7-dimethyl-4-oxo-1,4-dihydro-5H-pyrazolo[3,4-d]pyridazin-5-yl)-N-(1-(p-tolyl)ethyl)acetamide]
13 | 0.214 | 30.2 | Cc1nn(C)c2c(=O)n(CC(=O)N[C@@H](C)c3ccc(C(F)(F)F)cn3)ncc12 [Example 60, (S)-2-(1,3-dimethyl-7-oxo-1,7-dihydro-6H-pyrazolo[3,4-d]pyridazin-6-yl)-N-(1-(5-(trifluoromethyl)pyridin-2-yl)ethyl)acetamide]
14 | 0.0251 | 0.00214 | Cc1ccc([C@H](C)NC(=O)Cn2ncc3c(c(C)cn3C3CC3)c2=O)cc1F [Example 62, (S)-2-(1-cyclopropyl-3-methyl-4-oxo-1,4-dihydro-5H-pyrrolo[2,3-d]pyridazin-5-yl)-N-(1-(3-fluoro-4-methylphenyl)ethyl)acetamide]
15 | 0.0851 | 0.002 | Cc1cc(Cl)ccc1[C@H](C)NC(=O)Cn1ncc2c(c(C)cn2C2CC2)c1=O [Example 63, (S)—N-(1-(4-chloro-2-methylphenyl)ethyl)-2-(1-cyclopropyl-3-methyl-4-oxo-1,4-dihydro-5H-pyrrolo[2,3-d]pyridazin-5-yl)acetamide]
16 | 0.12 | 0.00209 | Cc1cc(C)c([C@H](C)NC(=O)Cn2ncc3c(c(C)cn3C3CC3)c2=O)c(C)c1 [Example 64, (S)-2-(1-cyclopropyl-3-methyl-4-oxo-1,4-dihydro-5H-pyrrolo[2,3-d]pyridazin-5-yl)-N-(1-mesitylethyl)acetamide]
17 | 0.0851 | 0.00389 | COc1cc(Cl)ccc1C[C@H](C)NC(=O)Cn1ncc2c(c(C)cn2C2CC2)c1=O [Example 67, (S)—N-(1-(4-chloro-2-methoxyphenyl)propan-2-yl)-2-(1-cyclopropyl-3-methyl-4-oxo-1,4-dihydro-5H-pyrrolo[2,3-d]pyridazin-5-yl)acetamide]
18 | 0.0692 | 0.000447 | Cc1ccc([C@H](C)NC(=O)Cn2nc(C)c3c(C)nn(C4CC4)c3c2=O)c(F)c1 [Example 69, (S)-2-(1-cyclopropyl-3,4-dimethyl-7-oxo-1,7-dihydro-6H-pyrazolo[3,4-d]pyridazin-6-yl)-N-(1-(2-fluoro-4-methylphenyl)ethyl)acetamide]
19 | 0.178 | 0.000759 | Cc1cc(C)c([C@H](C)NC(=O)Cn2nc(C)c3c(C)nn(C4CC4)c3c2=O)c(C)c1 [Example 70, (S)-2-(1-cyclopropyl-3,4-dimethyl-7-oxo-1,7-dihydro-6H-pyrazolo[3,4-d]pyridazin-6-yl)-N-(1-mesitylethyl)acetamide]
20 | 0.0933 | 0.000398 | Cc1nn(CC(=O)N[C@@H](C)c2ccc(F)cc2Cl)c(=O)c2c1c(C)nn2C1CC1 [Example 71, (S)—N-(1-(2-chloro-4-fluorophenyl)ethyl)-2-(1-cyclopropyl-3,4-dimethyl-7-oxo-1,7-dihydro-6H-pyrazolo[3,4-d]pyridazin-6-yl)acetamide]
21 | 0.055 | 1.91 | Cc1nn(CC(=O)N[C@@H](C)c2ccc(C(F)(F)F)cc2)c(=O)c2cnn(C)c12 [Example 72, (S)-2-(1,7-dimethyl-4-oxo-1,4-dihydro-5H-pyrazolo[3,4-d]pyridazin-5-yl)-N-(1-(4-(trifluoromethyl)phenyl)ethyl)acetamide]
